Source: patent US20040034216A1, “3-Nitrogen-6,7-dioxygen steroids and uses related thereto” (priority 2003, published 2004)
pIC50: −log10 of the molar value.

Legend:
[1] = test system: sensitized Brown Norway rats; test: Ovalbumin-induced accumulation of inflammatory cells in lung lavage fluid (allergen-induced lung inflammation); assay type: in vivo, rat; details: p.o.
Method: The ability of a compound to inhibit the allergen-induced accumulation of inflammatory cells such as eosinophils and neutrophils in the lavage fluid obtained from sensitized animals is indicative of that compound's anti-asthma activity. […] The test is conducted as follows.
Male Brown Norway rats are sensitized to ovalbumin by single intraperitoneal injection of 1 mg ovalbumin adsorbed to 100 mg […] (alum) in 1 ml sterile saline (saline control rats receive only sterile saline) on day 1, and allowed to sensitize until day 21. […] Rats are challenged with 0.5% ovalbumin in saline generated using a Devillbis nebulizer for 60 min on day 21.
Forty-eight hrs after challenge, animals are sacrificed with an overdose of intraperitoneally-delivered sodium pentobarbitol and the lungs are lavaged with cold 2×7 ml phosphate buffered saline. The recovered lavage fluid is placed on ice. The bronchoalveolar lavage fluid is centrifuged and the supernatant removed. The pellet is resuspended in phosphate buffered saline at 4° C. Cytospins are prepared and stained for differentiation and enumeration of cell types.
Test compound was administered in 300 μl corn oil (Tables 7 and 8) or water (Table 9), which were used as vehicles. Control animals received 300 μl corn oil or water alone, i.e., no drug. […] A negative value in Table 7, 8, or 9 indicates an exacerbation of the effect over the control animal.

[2] = Metabolic stability in human liver S9 fractions; assay type: in vitro ADME
Excerpt: The therapeutic effectiveness of a test compound can be often directly related to its metabolic stability in vivo. The majority of known, marketed drugs are metabolized by a group of enzymes known as P450 enzymes. The S9 fraction of human liver contains all the P450 enzymes and also cytoplasmic enzymes that may be involved in the metabolism of new chemical entities. Metabolism in vitro using human S9 fractions is a standard assay to evaluate relative metabolic stability of new compounds. The test is performed as follows.
Reagents are thawed on ice and combined to make up a Master Mix as follows: Potassium phosphate (100 mM, pH 7), G6P (0.25 mM), G6PDH (2 U/ml), NADPH (1 mM), UDP (0.25 mM), APPS (0.25 mM), and S9 fraction (2 mg/ml). A volume of 498 μl of the Master mix is dispensed into each microcentrifuge tube. A volume of 2 μl of 2.5 mM test compound (final concentration of 10 μM) is dispensed into the center of the lid of the appropriate tube, and the lids gently closed to prevent mixing. Synchronous combination of test compound and master mix is achieved by simultaneous ten times inversion of the tubes, which are then incubated at 37° C. and shaken at 150 rpm for the appropriate incubation times. While incubation is in progress, all 0 time samples are mixed individually by three times inversion followed by the immediate addition of 500 μl ice cold acetonitrile with three times inversion to stop the reaction. Immediately after each 15 minutes and 30 minutes incubation is complete, ice cold acetonitrile is added to each tube and the tubes mixed by three times inversion. All sample tubes are incubated at −80° C. for a minimum of 15 minutes, thawed and remixed by inversion. Aliquots of 650 μl are transferred to Chromatographic Specialties micro-system spin filter system tubes (0.2 μm nylon membrane, C618505) and centrifuged at 13,000 rpm for 48 seconds. The sample filtrates are stored at −80° C.
Sample filtrates are analyzed on LCMS, and percent remaining after 15 and 30 minute incubation is calculated relative to the 0 minute incubation.
The metabolic stability of various compounds are summarized in Table 10 as the percent remaining after 15 or 30 minutes incubation with human liver S9 fractions.

[3] = Pharmacokinetic profile in the rat; assay type: in vivo
[4] = Pharmacokinetic profile in the monkey; assay type: in vivo
[5] = test system: Rat Mast Cell Line (RBL-2H3); test: Antigen-induced release of hexosaminidase from a rat mast cell line (RBL-2H3); assay type: cell-based; details: Rattus norvegicus, RBL-2H3, inhibition of antigen (DNP-HSA)-induced hexosaminidase release, tested at 0.3, 3, 10 and 30 μM, read-out: Hex IC50
Method: The anti-allergic effects of a compound of the present invention was evaluated by measuring its effect on antigen-induced secretion of hexosaminidase from a passively sensitized rat mast cell line. The ability of a test compound to inhibit the release of mast cell granule contents, e.g., histamine and hexosaminidase, is indicative of the anti-allergy and/or anti-asthma activity of the compound. Hexosaminidase is released from the mast cell granule along with histamine and other mediators during antigen challenge. The test is performed as follows.
RBL-2H3 cells are grown in culture and passively sensitized for 1 hour at 37° C. to dinitrophenol (DNP) using anti-human-DNP (IgE). Cells are incubated with test compound for 30 minutes at 37° C. and stimulated with 0.5 μg/ml DNP-HSA (antigen) for 30 minutes. Aliquots of the supernatant are removed and used to measure the amount of hexosaminidase released during challenge with the antigen. The amount of hexosaminidase present in the supernatant is determined colorimetrically by monitoring the enzymatic metabolism of p-nitrophenyl-N-acetyl-β-D-glucosaminide (p-NAG) over a period of 60 minutes at 405 nm. The effect of each test compound is determined as a percentage of the antigen-induced response (minus background release) obtained in the presence of DMSO alone. These values are used to determine the degrees of inhibition of antigen-induced hexosaminidase release from the cells.

[6] = test system: Jurkat clone E6.1 cells; test: Antigen-induced calcium flux in anti-CD3 stimulated Jurkat cells (Fura 2AM); assay type: cell-based; details: Homo sapiens, Jurkat, read-out: Calcium (% inhibition at 20 μM), 20 μM; anti-CD3 mAb stimulated Jurkat clone E6.1 cells
Excerpt: Elevation of cytoplasmic calcium concentration is a common and crucial event which follows the activation of many types of cell surface receptors. Increases in intracellular calcium that occur following agonist activation of inositol lipid hydrolysis are the results of calcium release from the endoplasmic reticulum and the influx of calcium through the plasma membrane. Increases in cytosolic calcium concentration are involved in many important cellular responses in the inflammatory process including adhesion, motility, gene expression, proliferation, and degranulation. Changes in intracellular calcium concentrations can affect both short and long term cellular responses. An assay method to evaluate a test compound's impact on calcium flux is provided as follows.
The resulting supernatants are discarded and each pellet is washed in 10 mL HBSS. Cell suspensions are accumulated and centrifuged for 5 minutes at 900 RPM to form a cell pellet. The resulting supernatant is discarded and the pellet is resuspended in HBSS at 1×10^7cells/mL. The cell suspension is transferred to a 20 mm petri dish and incubated at 37° C., 5% CO2 for 20 minutes.
One volume of Fura 2AM is mixed to one volume of detergent Pluronic F127. Cells are labeled with 4 μL of probe solution to each mL of cell suspension. The petri dish is wrapped in aluminum foil to protect from light and placed on a plate shaker for 30 minutes at room temperature.
The following steps are done in the laminar flow hood with the fluorescent lights turned off. The petri dish is removed from the shaker and the labeled cell suspension is transferred to a 15 mL conical tube and washed twice with HBSS as above. The cell pellet is resuspended in 12 mL HBSS and left wrapped in foil for 30 minutes at room temperature. The labeled cell suspension is aliquoted (100 μL/well) into a Dynex 96 well white opaque tissue culture plate. […] Selected compounds were tested for dose related activity. Test samples and activator (anti-CD3 mAb at final concentration of 4 μg/mL, PharMingen) are added manually (50 μL), such that the minimum time to acquire the first data point after stimulation is approximately 30 seconds. The calcium influx response to anti-CD3 mAb is measured as an “end point” assay. The entire plate is read in 100 seconds using a kinetic of 1 second per well.
The plate is read before the addition of anti-CD3 to monitor non-specific effect of samples/drugs. Fluorescence emission is measured at 510 nm with excitation alternating between 340 and 380 every second using an excitation/emission filter pair. Data from these dual wavelengths are represented as a ratio of 2 excitations wavelengths. This ratio is independent of intracellular dye and cell concentrations, enabling real comparison between experiments.

[7] = physchem; details: water
[8] = 5 mg/kg/day for 4 days, corn oil, lung lavage fluid, relative to control animals
[9] = 0.1 mg/kg, 4 days qd, water vehicle
[10] = 0.3 mg/kg, 4 days qd, water vehicle
[11] = 1 mg/kg, 4 days qd, water vehicle

| Compound | % inhibition of eosinophils [1, 8] [%] | remains unchanged after 15 and even 30 minutes incubation with human S9 fractions ([2]; human, s9, 0.5 h, 10 μM, pH 7) [%] | maximal concentration in plasma [3] | maximal concentration in plasma [4] | pIC50 [5] | inhibition at 20 µM [6] [%] | also measured |
| --- | --- | --- | --- | --- | --- | --- | --- |
| C=C1CCC2C3C(CC[C@]12C)[C@@]1(C)CC[C@H](N)CC1[C@@H](O)[C@@H]3O (some centres unmarked) [Compound 89] | 57 | 100 | predictable and linear | predictable and linear |  |  |  |
| CC1(C)CCC2=C1CCC1C2[C@@H](O)[C@H](O)C2C[C@@H](N)CC[C@]12C (some centres unmarked) [Compound 139] |  | 100 |  |  | 4.99 | 26.3 | % inhibition of eosinophils [1, 9]: 46%; % inhibition of lymphocytes [1, 9]: 19%; % inhibition of neutrophils [1, 9]: 42%; % inhibition of eosinophils [1, 10]: 41%; % inhibition of lymphocytes [1, 10]: 34%; % inhibition of neutrophils [1, 10]: 62%; % inhibition of eosinophils [1, 11]: 42%; % inhibition of lymphocytes [1, 11]: 56%; % inhibition of neutrophils [1, 11]: 63%; % remaining after 15 min ([2]; human, s9, 15 min, 10 μM, pH 7): 109 ± 26%; % remaining after 30 min ([2]; human, s9, 30 min, 10 μM, pH 7): 100 ± 10% |
| C/C=C1/CCC2C3C(CC[C@]12C)[C@@]1(C)CC[C@H](N)CC1[C@@H](O)[C@@H]3O (some centres unmarked) [Compound 83] | 67 |  |  |  | 5.11 | 30.3 | solubility [7]: > 100 mg/mL |
| CCC1(C)CCC2=C1CCC1C2C(O)C(O)C2CC(N)CCC21C.Cl (centres unmarked) [Compound 143] |  |  |  |  |  |  | remains unchanged after 15 and even 30 minutes incubation with human S9 fractions ([2]; 15 and 30 minutes, human S9 fractions): 100% |
| C/C=C1/CCC2C3C(CC[C@]12C)[C@@]1(C)CC[C@H](N)CC1[C@@H](O)[C@@H]3O (some centres unmarked) [Compound 28] | 85 | 100 | predictable and linear | predictable and linear | 5.17 | 29 |  |
